Source: BindingDB's records for doi:10.1016/S0960-894X(01)80395-4 (1994)

Target: Arachidonate 5-lipoxygenase (Cavia porcellus)
Assay: Inhibitory activity against 5-lipoxygenase in guinea pig leukocytes was determined

Structure (SMILES)	IC50 [nM]
COc1ccc2[nH]c(-c3cc(C)c(O)c(C)c3)c(C)c2c1 [TZI-41127]	240
Cc1ccnc(N2CCN(CCC3Cn4c(-c5cc(C)c(O)c(C)c5)c(C)c5cc(O)cc(c54)O3)CC2)c1 (configuration not stated) [5-(4-Hydroxy-3,5-dimethyl-phenyl)-6-methyl-2-{2-[4-(4-methyl-pyridin-2-yl)-piperazin-1-yl]-ethyl}-2,3-dihydro-[1,4]oxazino[2,3,4-hi]indol-8-ol]	180
